Measured values published in ChEMBL document CHEMBL6096640, “Discovery of novel thiosemicarbazone-acridine targeting butyrylcholinesterase with antioxidant, metal complexing and neuroprotector abilities as potential treatment of Alzheimer's disease: In vitro, in vivo, and in silico studies” (Eur J Med Chem, 2025).
Activity calls are given as the source filed them. The calls are words filed in the database; no cut-off is given here.

Columns and labels:
in vitro = conditions: human
Description: Neurotoxicity against human SH-SY5Y cells assessed as cell viability at 50 uM relative to control

[1] = Antioxidant activity of the compound assessed as DPPH radical scavenging activity at 100 uM incubated under light for 30 mins by spectrophotometric analysis relative to control; assay type: functional
Cholinesterase [2] = biological target: T1, Cholinesterase (Equus caballus, UniProt P81908)
T1 sequence (P81908 whole entry): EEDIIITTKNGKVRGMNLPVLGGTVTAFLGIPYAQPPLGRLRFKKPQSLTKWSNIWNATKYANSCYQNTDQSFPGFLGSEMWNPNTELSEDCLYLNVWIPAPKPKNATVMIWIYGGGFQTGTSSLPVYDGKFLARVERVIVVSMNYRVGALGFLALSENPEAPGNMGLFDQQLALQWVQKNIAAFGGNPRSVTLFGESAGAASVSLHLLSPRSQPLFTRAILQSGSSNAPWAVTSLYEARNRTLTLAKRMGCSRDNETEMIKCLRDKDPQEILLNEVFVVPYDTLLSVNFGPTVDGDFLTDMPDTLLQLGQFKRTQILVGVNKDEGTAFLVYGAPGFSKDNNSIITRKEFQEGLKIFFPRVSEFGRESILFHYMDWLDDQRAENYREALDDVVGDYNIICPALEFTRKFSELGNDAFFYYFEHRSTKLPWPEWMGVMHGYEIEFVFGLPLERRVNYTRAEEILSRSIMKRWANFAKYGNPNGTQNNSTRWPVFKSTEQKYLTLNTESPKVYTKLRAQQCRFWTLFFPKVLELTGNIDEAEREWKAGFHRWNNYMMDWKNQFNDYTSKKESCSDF
Description: Inhibition of equine serum BChE using butyrylthiocholine iodide as substrate preincubated for 10 mins followed by substrate addition by Ellman's method

Acetylcholinesterase [3] = biological target: T2, Acetylcholinesterase (Electrophorus electricus, UniProt O42275)
T2 sequence (O42275 whole entry): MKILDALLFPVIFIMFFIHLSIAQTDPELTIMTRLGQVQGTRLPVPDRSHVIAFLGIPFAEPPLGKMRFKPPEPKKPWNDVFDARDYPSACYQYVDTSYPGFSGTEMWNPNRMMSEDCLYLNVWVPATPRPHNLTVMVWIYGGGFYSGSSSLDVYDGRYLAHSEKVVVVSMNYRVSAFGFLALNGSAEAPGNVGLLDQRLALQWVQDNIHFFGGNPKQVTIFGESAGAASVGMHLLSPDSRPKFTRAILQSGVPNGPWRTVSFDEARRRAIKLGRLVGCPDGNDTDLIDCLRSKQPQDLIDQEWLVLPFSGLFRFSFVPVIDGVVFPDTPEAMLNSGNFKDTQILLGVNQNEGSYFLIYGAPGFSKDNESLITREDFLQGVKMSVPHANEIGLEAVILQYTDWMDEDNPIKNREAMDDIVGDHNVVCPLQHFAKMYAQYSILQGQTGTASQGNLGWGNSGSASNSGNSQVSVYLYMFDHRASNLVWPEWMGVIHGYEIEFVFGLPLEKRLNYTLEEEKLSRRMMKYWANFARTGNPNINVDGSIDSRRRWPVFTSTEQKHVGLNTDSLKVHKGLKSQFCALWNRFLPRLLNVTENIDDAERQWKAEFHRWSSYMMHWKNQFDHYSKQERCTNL
Description: Inhibition of electric eel AChE using acetylthiocholine iodide as substrate preincubated for 10 mins followed by substrate addition by Ellman's method

[4] = biological target: Cholinesterase (Equus caballus) (UniProt P81908); experiment: Inhibition of equine serum BChE using butyrylthiocholine iodide as substrate at 10 uM preincubated for 10 mins followed by substrate addition by Ellman's method relative to control
Chain of Cholinesterase (Equus caballus) (P81908 whole entry): as the sequence (P81908 whole entry) above

[5] = biological target: Acetylcholinesterase (Electrophorus electricus) (UniProt O42275); experiment: Non-competitive inhibition of electric eel AChE using acetylthiocholine iodide as substrate assessed as decreased Vmax with constant Km by Ellman's method based Lineweaver-Burk plot analysis
Chain of Acetylcholinesterase (Electrophorus electricus) (O42275 24-633 limits assumed): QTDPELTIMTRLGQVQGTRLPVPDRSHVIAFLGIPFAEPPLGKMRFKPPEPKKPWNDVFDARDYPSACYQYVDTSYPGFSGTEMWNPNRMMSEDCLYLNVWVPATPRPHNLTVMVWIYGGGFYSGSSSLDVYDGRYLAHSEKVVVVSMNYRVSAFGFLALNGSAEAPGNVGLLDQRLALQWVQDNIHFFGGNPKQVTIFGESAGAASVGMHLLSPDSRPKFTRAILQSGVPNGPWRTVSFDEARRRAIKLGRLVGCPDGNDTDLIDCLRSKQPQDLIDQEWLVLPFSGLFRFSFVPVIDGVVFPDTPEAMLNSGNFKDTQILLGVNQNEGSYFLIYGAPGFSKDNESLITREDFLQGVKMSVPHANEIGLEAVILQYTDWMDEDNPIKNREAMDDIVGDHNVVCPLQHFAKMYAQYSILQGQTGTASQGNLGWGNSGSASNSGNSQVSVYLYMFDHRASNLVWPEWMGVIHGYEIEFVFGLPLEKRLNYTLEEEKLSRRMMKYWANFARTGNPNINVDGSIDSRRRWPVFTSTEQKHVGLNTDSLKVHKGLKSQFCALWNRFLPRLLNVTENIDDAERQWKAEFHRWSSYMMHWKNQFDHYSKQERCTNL

[6] = biological target: Acetylcholinesterase (Electrophorus electricus) (UniProt O42275); experiment: Inhibition of electric eel AChE using acetylthiocholine iodide as substrate at 10 uM preincubated for 10 mins followed by substrate addition by Ellman's method relative to control
[7] = Neurotoxicity against human SH-SY5Y cells assessed as reduction in cell viability at <= 50 uM; assay type: toxicity, cell-based
Cholinesterase [8] = biological target: T1, Cholinesterase; experiment: Non-competitive inhibition of equine serum BChE using butyrylthiocholine iodide as substrate preincubated for 10 mins followed by substrate addition by Lineweaver-Burk plot analysis
Cholinesterase [9] = biological target: T1, Cholinesterase; experiment: Competitive inhibition of equine serum BChE using butyrylthiocholine iodide as substrate preincubated for 10 mins followed by substrate addition by Lineweaver-Burk plot analysis
Acetylcholinesterase [10] = biological target: T2, Acetylcholinesterase; experiment: Non-competitive inhibition of electric eel AChE using acetylthiocholine iodide as substrate preincubated for 10 mins followed by substrate addition by Lineweaver-Burk plot analysis
[11] = Antioxidant activity of the compound assessed as DPPH radical scavenging activity at 10 uM incubated under light for 30 mins by spectrophotometric analysis relative to control; assay type: functional
[12] = Neurotoxicity against human SH-SY5Y cells assessed as cell viability at 12.5 to 50 uM relative to control; assay type: toxicity, cell-based; conditions: dose 12.5-50 µM, read-out: Activity
SH-SY5Y = experiment: Neuroprotective activity against H2O2-induced cell death in human SH-SY5Y cells assessed as cell viability at 3.125 to 12.5 uM preincubated for 24 hrs followed by H2O2 addition and measured after 2 hrs by MTT assay; assay type: functional, cell-based; conditions: dose 3.125-12.5 µM, time 26.0 hrs
Mus musculus [13] = experiment: Antialzheimer activity against scopolamine-induced amnesia Swiss mouse model assessed as sign of innate preference for objects at 1 uM, icv by novel object recognition test; assay type: functional, organism-based
Mus musculus [14] = experiment: Antialzheimer activity against scopolamine-induced amnesia Swiss mouse model assessed as increase in exploration time at 1 uM, icv by novel object recognition test; assay type: functional, organism-based
[15] = Toxicity in Swiss mouse assessed as novel […] memory at 1 uM, icv by novel object recognition test; conditions: in vivo, icv_or_intrathecal
Mus musculus [16] = experiment: Antialzheimer activity against scopolamine-induced amnesia Swiss mouse model assessed as number of crossings at 1 uM, icv by open field test; assay type: functional, organism-based
Acetylcholinesterase [17] = biological target: T2, Acetylcholinesterase; experiment: Competitive inhibition of electric eel AChE using acetylthiocholine iodide as substrate at 11 uM preincubated for 10 mins followed by substrate addition by Lineweaver-Burk plot analysis
[18] = biological target: Acetylcholinesterase (Electrophorus electricus) (UniProt O42275); experiment: Mixed-type inhibition of electric eel AchE using acetylthiocholine iodide as substrate assessed as decrease in Vmax with increase in Km preincubated for 10 mins followed by substrate addition by Lineweaver-Burk plot analysis
Cholinesterase [19] = biological target: T1, Cholinesterase; experiment: Competitive inhibition of equine serum BChE using butyrylthiocholine iodide as substrate at 3 uM preincubated for 10 mins followed by substrate addition by Lineweaver-Burk plot analysis
[20] = biological target: Cholinesterase (Equus caballus) (UniProt P81908); experiment: Mixed-type inhibition of equine serum BChE using butyrylthiocholine iodide as substrate assessed as decrease in Vmax with increase in Km preincubated for 10 mins followed by substrate addition by Lineweaver-Burk plot analysis

| SMILES | Activity [1] [%] | IC50 (Cholinesterase [2]) [µM] | IC50 (Acetylcholinesterase [3]) [µM] | inhibition [4] [%] | other results |
| --- | --- | --- | --- | --- | --- |
| COc1cc2c(cc1OC)C(=O)C(CC1CCN(Cc3ccccc3)CC1)C2 (stereo not drawn) [DONEPEZIL] | – | – | – | – | viability at 50 µM (in vitro; sh-sy5y): 80% |
| S=C(N/N=C/c1cccs1)Nc1c2ccccc2nc2ccccc12 | 41.5 | 2.45 | 34.6 | 83 | – |
| Oc1ccc(/C=N/NC(=S)Nc2c3ccccc3nc3ccccc23)cc1 | – | 1.73 | 11.5 | 83 | – |
| S=C(N/N=C/c1c[nH]c2ccccc12)Nc1c2ccccc2nc2ccccc12 | 23.8 | 1.68 | 9.39 | 83 | – |
| S=C(N/N=C/c1ccccc1)Nc1c2ccccc2nc2ccccc12 | 37.9 | 0.71 | 2.47 | 83 | inhibition [5]: Active; inhibition [6]: 87%; Activity [7]: Non-toxic; Ki (Cholinesterase [8]): 1.68 µM; Ki (Cholinesterase [9]): 0.72 µM; Ki (Acetylcholinesterase [10]): 1.35 µM |
| Oc1cccc(/C=N/NC(=S)Nc2c3c(nc4ccccc24)CCCC3)c1 | 12.1 | 3.03 | – | – | – |
| O=[N+]([O-])c1ccc(/C=N/NC(=S)Nc2c3ccccc3nc3ccccc23)cc1 | – | 0.89 | 8.64 | 83 | inhibition [5]: Active; Activity [7]: Non-toxic; Ki (Cholinesterase [8]): 0.53 µM; Ki (Cholinesterase [9]): 0.2 µM; Ki (Acetylcholinesterase [10]): 2.97 µM |
| Cc1ccc(/C=N/NC(=S)Nc2c3ccccc3nc3ccccc23)c(O)c1 | 28.7 | 3.19 | 11.3 | 83 | – |
| Cc1ccc(/C=N/NC(=S)Nc2c3ccccc3nc3ccccc23)cc1 | – | 1.54 | 2.78 | 83 | – |
| S=C(N/N=C/c1ccco1)Nc1c2ccccc2nc2ccccc12 | 43.9 | 4.4 | 28 | 83 | – |
| CN(C)c1ccc(/C=N/NC(=S)Nc2c3ccccc3nc3ccccc23)cc1 | – | 1.77 | 7.6 | 83 | – |
| Oc1cccc(/C=N/NC(=S)Nc2c3ccccc3nc3ccccc23)c1 | – | 2.28 | 22 | 83 | – |
| S=C(N/N=C/c1ccc(Cl)cc1)Nc1c2ccccc2nc2ccccc12 | – | 2.19 | 10.1 | 83 | – |
| O=c1c(O)c(-c2ccc(O)c(O)c2)oc2cc(O)cc(O)c12 | – | – | – | – | Activity [11]: 51.7% |
| S=C(N/N=C/c1ccc(Cl)cc1Cl)Nc1c2ccccc2nc2ccccc12 | – | 1.06 | 6.11 | 83 | Activity [7]: Non-toxic |
| Fc1ccc(/C=N/NC(=S)Nc2c3ccccc3nc3ccccc23)cc1 | 44.3 | 1.35 | 12.8 | 83 | viability at 50 µM [12]: ≤ 70% |
| Cc1[nH]c2ccccc2c1/C=N/NC(=S)Nc1c2ccccc2nc2ccccc12 | 61 | 2.01 | 8.57 | 83 | – |
| COc1ccc(/C=N/NC(=S)Nc2c3ccccc3nc3ccccc23)cc1O | 41.2 | 3.3 | 43.3 | 83 | – |
| COc1ccc(/C=N/NC(=S)Nc2c3ccccc3nc3ccccc23)cc1 | – | 1.04 | 6.2 | 83 | Activity [7]: Non-toxic |
| CC(C)(C)c1cc(/C=N/NC(=S)Nc2c3ccccc3nc3ccccc23)cc(C(C)(C)C)c1O | 69 | 1.15 | 10.5 | 83 | Activity (SH-SY5Y): Active; Activity (Mus musculus [13]): inactive; viability at 50 µM [12]: ≤ 70%; Activity (Mus musculus [14]): Active; Activity [15]: Toxic; viability at 50 µM (in vitro; SH-SY5Y cells): 90%; Activity (Mus musculus [16]): inactive |
| S=C(N/N=C/c1cccnc1)Nc1c2ccccc2nc2ccccc12 | 15.5 | – | – | 83 | – |
| S=C(N/N=C/c1ccccc1)Nc1c2c(nc3ccccc13)CCCC2 | 32.2 | 5.38 | 13.6 | – | Ki (Acetylcholinesterase [17]): 1.66 µM; Ki (Cholinesterase [8]): 3.63 µM; Ki (Acetylcholinesterase [10]): 9.82 µM; Activity [18]: Active; Ki (Cholinesterase [19]): 1.41 µM; Activity [20]: Active |
| Oc1ccccc1/C=N/NC(=S)Nc1c2ccccc2nc2ccccc12 | 15.8 | 3.13 | 10.8 | 83 | – |
| S=C(N/N=C/c1ccc(Br)cc1)Nc1c2ccccc2nc2ccccc12 | – | 3.18 | 9.79 | 83 | – |
